Assay results reported in patent US9951081B1, “Chlorin e6 derivative and pharmaceutically acceptable salt thereof and process for preparing and use of the same” (priority 2016, dated 2018).
Where two headings read alike, the source gives them in different places.

Columns and labels:
[1] = system: human non-small cell lung cancer cell (A549); experiment: In vitro darktoxicity and PDT killing effect (CCK-8), A549; assay type: cell-based; details: for PDT anti-cancer activity (in words): light dose of 8 J/cm^2
Text: (§1) Human non-small cell lung cancer cellA549 and mice melanoma cell B16-F10 provided by Cell bank of Shanghai in Chinese Academy of Sciences were selected as cell strains.
(§2) 660 nm semiconductor laser therapeutic equipments manufactured by Baifei biomedical company of Shanghai was selected as a laser light source, with the largest output power of 2 W.
(§3) 1) Cell strains of tumors: culture of human non-small cell lung cancer cell (A549) and mice melanoma cell (B16-F10): frozen cells were taken out of liquid nitrogen, placed in a water bath at […]. […] The medium was renewed once every two days.
(§4) 2) Preparation of reagents: compounds of the present application to be tested and positive control drug Talaporfin were dissolved in a suitable amount of 0.1 M NaOH, adjusted pH to 7.4 by 0.1 M HCl. Normal saline was added to prepare drug stock solution in a suitable concentration.
(§5) 3) Detecting darktoxicity and PDT killing effects to the two tumor cells of compounds to be tested and positive control drug: 100 μL of 5×10^3/mL cell suspension was added into each well of 96-well plate, placed in a incubator at 37° C., 5% CO2 for 24 h. after removing cell medium, fresh mediums containing different concentration of samples were added, opened with three complex holes, and incubated for 24 h at 37° C. and 5% CO2 (volume concentration). After adding fresh medium, no light irradiated (darktoxicity) or 660 nm wavelength laser was used to irradiate (light dose was 8 J/cm^2) (phototoxicity). Cells were incubated for another 24 h. Cell medium containing drugs were removed and fresh medium was added. 200 μL medium containing 10% (v/v) CCK-8 (Dojindo Laboratories, Japan) was added into each well, and incubated for 1.5 h. Microplate reader (Tecan, Switzerland) was used to measure absorbance of each well at a wavelength of 450 nm.

[2] = system: mice melanoma cell (B16-F10); experiment: In vitro darktoxicity and PDT killing effect (CCK-8), B16-F10; assay type: cell-based; details: for PDT anti-cancer activity (in words): light dose of 8 J/cm^2
Text: as §1, §2, §3, §4, §5

[3] = 660 nm laser, light dose 8 J/cm^2, read-out: Phototoxicity (IC50)
[4] = no light irradiated, 24 h drug incubation, read-out: Darktoxicity (IC50)

SMILES	PDT anti-cancer activity (in words) [1]	PDT anti-cancer activity (in words) [2]	Ratio of Darktoxicity and Phototoxicity [1]	IC50 [1, 3] [µM]	IC50 [1, 4] [µM]	Ratio of Darktoxicity and Phototoxicity [2]	IC50 [2, 3] [µM]	IC50 [2, 4] [µM]	IC50 ([1]; Homo sapiens, light or radiation study, 660 nm laser, light dose 8 J/cm^2, read-out: Phototoxicity (IC50)) [µM]	IC50 ([1]; Homo sapiens, light or radiation study, no light irradiated, 24 h drug incubation, read-out: Darktoxicity (IC50)) [µM]	IC50 ([2]; Mus musculus, light or radiation study, 660 nm laser, light dose 8 J/cm^2, read-out: Phototoxicity (IC50)) [µM]	IC50 ([2]; Mus musculus, light or radiation study, no light irradiated, 24 h drug incubation, read-out: Darktoxicity (IC50)) [µM]	PDT anti-tumor activity, times that of Talaporfin ([1]; relative to Talaporfin) [times]	ratio of darktoxicity-phototoxicity, times that of Talaporfin ([1]; relative to Talaporfin) [times]	PDT anti-tumor activity, times that of Talaporfin ([2]; relative to Talaporfin) [times]	ratio of darktoxicity-phototoxicity, times that of Talaporfin ([2]; relative to Talaporfin) [times]
CCCCCCOC(C)c1c(C)c2cc3nc(c(CC(=O)N[C@@H](CCC(=O)O)C(=O)O)c4[nH]c(cc5nc(cc1[nH]2)C(C)=C5CC)c(C)c4C(=O)O)C(CCC(=O)O)C3C (stereo partly drawn) [I12, N-[3-(1-n-hexyloxy)ethyl-3-devinylchlorine6-15^2-acyl]-L-glutamic acid]	best	best														
CCC1=C(C)c2cc3[nH]c(cc4nc(c(CC(=O)N[C@@H](CCCCN)C(=O)O)c5[nH]c(cc1n2)c(C)c5C(=O)O)C(CCC(=O)O)C4C)c(C)c3C(C)OC (stereo partly drawn) [I19, N^α-[3-(1-methoxy)ethyl-3-devinylchlorine6-15^2-acyl]-L-lysine]			>156.25	1.92	> 300	84.41	2.28	192								
CCCOC(C)c1c(C)c2cc3nc(c(CC(=O)N[C@@H](CCC(=O)O)C(=O)O)c4[nH]c(cc5nc(cc1[nH]2)C(C)=C5CC)c(C)c4C(=O)O)[C@@H](CCC(=O)O)[C@@H]3C (stereo partly drawn) [I11, N-[3-(1-n-propoxyl)ethyl-3-devinylchlorine6-15^2-acyl]-L-glutamic acid]				1.12	278			173								
CCCCCCOC(C)c1c(C)c2cc3nc(c(CC(=O)N[C@@H](CCCCN)C(=O)O)c4[nH]c(cc5nc(cc1[nH]2)C(C)=C5CC)c(C)c4C(=O)O)C(CCC(=O)O)C3C (stereo partly drawn) [I21, N-[3-(1-n-hexyloxy)ethyl-3-devinylchlorine6-15^2-acyl]-L-lysine]	best	best	370.30	0.79	293	171.31	1.05	180								
CCC1=C(C)c2cc3[nH]c(cc4nc(c(CC(=O)N[C@@H](CCCCN)C(=O)O)c5[nH]c(cc1n2)c(C)c5C(=O)O)[C@@H](CCC(=O)O)[C@@H]4C)c(C)c3C(C)OCCOCCOC (stereo partly drawn) [I26, N-[3-[1-(2-(2-methoxy)ethyoxyl)ethyoxyl]ethyl-3-devinylchlorine6-15^2-acyl]-L-lysine]			201.61	1.23	248	105.20	1.67	176								
CCC1=C(C)c2cc3[nH]c(cc4nc(c(CC(=O)N[C@@H](CC(=O)O)C(=O)O)c5[nH]c(cc1n2)c(C)c5C(=O)O)[C@@H](CCC(=O)O)[C@@H]4C)c(C)c3C(C)OCCOCCOC (stereo partly drawn) [I8, N-[3-[1-(2-(2-methoxy)ethyoxyl)ethyoxyl]ethyl-3-devinylchlorine6-15^2-acyl]-L-aspartic acid]			283.98	1.01	287	122.07	1.43	175								
CCC1=C(C)c2cc3[nH]c(cc4nc(c(CC(=O)N[C@@H](CCCCN)C(=O)O)c5[nH]c(cc1n2)c(C)c5C(=O)O)[C@@H](CCC(=O)O)[C@@H]4C)c(C)c3C(C)OCCOC (stereo partly drawn) [I22, N-[3-[1-(2-methoxy)ethyoxyl]ethyl-3-devinylchlorine6-15^2-acyl]-L-lysine]			175.76	1.47	258	89.24	1.91	170								
CCCOC(C)c1c(C)c2cc3nc(c(CC(=O)N[C@@H](CCCCN)C(=O)O)c4[nH]c(cc5nc(cc1[nH]2)C(C)=C5CC)c(C)c4C(=O)O)[C@@H](CCC(=O)O)[C@@H]3C (stereo partly drawn) [I20, N-[3-(1-n-propoxyl)ethyl-3-devinylchlorine6-15^2-acyl]-L-lysine]			>225.56	1.33	> 300	92.87	1.75	163								
CCC1=C(C)c2cc3[nH]c(cc4nc(c(CC(=O)N[C@@H](CCC(=O)O)C(=O)O)c5[nH]c(cc1n2)c(C)c5C(=O)O)[C@@H](CCC(=O)O)[C@@H]4C)c(C)c3C(C)OCCOCCOC (stereo partly drawn) [I17, N-[3-[1-(2-(2-methoxy)ethyoxyl)ethyoxyl]ethyl-3-devinylchlorine6-15^2-acyl]-L-glutamic acid]			240.63	1.1	265	111.04	1.52	169								
CCC1=C(C)c2cc3[nH]c(cc4nc(c(CC(=O)N[C@@H](CC(=O)O)C(=O)O)c5[nH]c(cc1n2)c(C)c5C(=O)O)C(CCC(=O)O)C4C)c(C)c3C(C)OC (stereo partly drawn) [I1, N-[3-(1-methoxy)ethyl-3-devinylchlorine6-15^2-acyl]-L-aspartic acid]			>227.27	1.32	> 300	102.34	2.06	211								
CCC1=C(C)c2cc3[nH]c(cc4nc(c(CC(=O)N[C@@H](CC(=O)OC(C)(C)C)C(=O)OC(C)(C)C)c5[nH]c(cc1n2)c(C)c5C(=O)O)[C@@H](CCC(=O)O)[C@@H]4C)c(C)c3C(C)OCCOC (stereo partly drawn) [I4, N-[3-[1-(2-methoxy)ethyoxyl]ethyl-3-devinylchlorine6-15^2-acyl]-L-aspartic acid di-tert-butyl ester]			255.18	1.17	299	113.91	1.61	183								
C=Cc1c(C)c2cc3nc(c(CC(=O)N[C@@H](CC(=O)O)C(=O)O)c4[nH]c(cc5nc(cc1[nH]2)C(C)=C5CC)c(C)c4C(=O)O)[C@@H](CCC(=O)O)[C@@H]3C [Talaporfin, reference compound]			31.21			15.81			8.86	277	10.7	170				
CCC1=C(C)c2cc3[nH]c(cc4nc(c(CC(=O)N[C@@H](CC(=O)O)C(=O)O)c5[nH]c(cc1n2)c(C)c5C(=O)O)C(CCC(=O)O)C4C)c(C)c3C(C)OCCCCOC (stereo partly drawn) [I7, N-[3-[1-(4-methoxy)butoxy]ethyl-3-devinylchlorine6-15^2-acyl]-L-aspartic acid]			317.88	0.86	273	159.38	1.04	166								
CCCOC(C)c1c(C)c2cc3nc(c(CC(=O)N[C@@H](CC(=O)O)C(=O)O)c4[nH]c(cc5nc(cc1[nH]2)C(C)=C5CC)c(C)c4C(=O)O)[C@@H](CCC(=O)O)[C@@H]3C (stereo partly drawn) [I2, N-[3-(1-n-propoxyl)ethyl-3-devinylchlorine6-15^2-acyl]-L-aspartic acid]			>288.46	1.04	> 300	125.73	1.48	186								
CCC1=C(C)c2cc3[nH]c(cc4nc(c(CC(=O)N[C@@H](CCCCN)C(=O)O)c5[nH]c(cc1n2)c(C)c5C(=O)O)C(CCC(=O)O)C4C)c(C)c3C(C)OCCCCOC (stereo partly drawn) [I25, N-[3-[1-(4-methoxy)butoxy]ethyl-3-devinylchlorine6-15^2-acyl]-L-lysine]			222.06	1.08	240	140.15	1.16	163								
CCCCCCOC(C)c1c(C)c2cc3nc(c(CC(=O)N[C@@H](CC(=O)O)C(=O)O)c4[nH]c(cc5nc(cc1[nH]2)C(C)=C5CC)c(C)c4C(=O)O)[C@@H](CCC(=O)O)[C@@H]3C (stereo partly drawn) [I3, N-[3-(1-n-hexyloxy)ethyl-3-devinylchlorine6-15^2-acyl]-L-aspartic acid]	best	best	438.34	0.65	285	215.65	0.89	192					13.63	14.04	12.07	13.64
CCC1=C(C)c2cc3[nH]c(cc4nc(c(CC(=O)N[C@@H](CCC(=O)O)C(=O)O)c5[nH]c(cc1n2)c(C)c5C(=O)O)[C@@H](CCC(=O)O)[C@@H]4C)c(C)c3C(C)OCCOC (stereo partly drawn) [I13, N-[3-[1-(2-methoxy)ethyoxyl]ethyl-3-devinylchlorine6-15^2-acyl]-L-glutamic acid]			213.90	1.25	267	92.93	1.72	160								
